Measured values from patent publication US8202909B2, “Method for treating central nervous system disorders” (Sucampo AG, priority 2005, dated 2012).
Marks after values point to notes of the source that are not given here.

Experiments:
ddY mice [1] = assay: Persistent time of gasping movements after decapitation in mice, oral administration (Example 2); format: in vivo; details: for Persistent Time of Gasping Movements: fasted mice, decapitated 30 minutes after administration, Mean ± SE, n=10; for Effect on persistent time of gasping movement after decapitation (in words): oral administration at 100, 300 and 1000 μg/kg
Procedure: (§1) Four-week-old male ddY mice were housed in aluminum cages in an animal room controlled for temperature (24±3° C.), relative humidity (55±10%), ventilation rate (˜12 times/hour) and light-dark cycle (fluorescent lighting: 8:00 to 20:00) for at least 7 days. The animals were allowed free access to pellet diet and tap water from water bottles. Healthy animals without abnormalities in general signs were used in this study. The animals were fasted for 20 hours or longer with free access to water before use.
Compound A and 11-deoxy-13,14-dihydro-15-keto-16,16-difluoro-PGE1 methyl ester (hereinafter, “Compound B”) were dissolved in a vehicle (physiologic saline containing 0.01% polysorbate 80 and 0.5% ethanol), and was administered orally to the animals. The control group received an equal amount of the vehicle in the same manner.
(§2) The animals were decapitated at 30 minutes after the administration, and the persistent time of gasping movements was measured.

ddY mice [2] = assay: Persistent time of gasping movements after decapitation in mice, subcutaneous (Example 3); format: in vivo; details: 300 μg/kg s.c.
Procedure: as §1, with “study.” for “study. The animals were fasted for 20 hours or longer with free access to water before use.”
11-deoxy-13,14-dihydro-16,16-difluoro-PGE1 (hereinafter, “Compound C”) was dissolved in a vehicle (physiologic saline containing 0.01% polysorbate 80 and 0.5% ethanol), and was administered subcutaneously to the animals. The control group received an equal amount of the vehicle in the same manner.
as §2

Crj: CD (SD) male rats = assay: Cerebral infarct volume after transient focal cerebral ischemia (MCA occlusion-reperfusion) in rats; format: in vivo; details: for Infarct volume: brain removed 24 hours after MCA occlusion, mean±S.E., n=10
Procedure: Seven-week-old Crj: CD (SD) male rats were housed in polymethylpentene cages in an animal room controlled for room temperature (22-26° C.), relative humidity (47-60%), ventilation rate (10-20 times/hour) and light-dark cycle (lighting: 7:00 to 19:00) for at least 6 days. The animals were allowed free access to pellet diet and water from water bottles. Animals judged to be in good health were used in this study.
Rats were anesthetized by inhalation of a gas mixture of 2% isoflurane and N2O:O2 (=7:3), stabilized in the supine position, and maintained in the anesthetized state by inhalation of the above gas mixture. The animals were monitored for rectal temperature using a temperature probe during the period of the surgical operation. When a fall in body temperature was observed, an incandescent lamp was used to maintain the temperature at around 37° C. The right common carotid artery, external carotid artery, and internal carotid artery were exposed for occluding the middle cerebral artery (hereafter, MCA). The right common carotid artery and the external carotid artery were ligatured using sutures (5-0), and a 19 mm-long segment of No. 4-0 nylon suture which were precoated with silicone was inserted into the MCA through the bifurcation of the external and internal carotid arteries to occlude the MCA. At 2 hours after the MCA occlusion, the suture was removed and the blood flow in the MCA was restored.
Compound A was dissolved in a vehicle (physiological saline containing 1% polysorbate 80), and was administered intravenously to the animals at a volume of 2 mL/kg immediately after the MCA occlusion-reperfusion and 30 minutes after the MCA occlusion-reperfusion. The control group received an equal volume of the vehicle in the same manner.
At 24 hours after MCA occlusion, the animals were decapitated and the brains were immediately isolated. […] Graphic analysis (Adobe Photoshop™, version 3.0 J; Adobe Systems Incorporated, Color Count 0.3b; K&M Software Corporation) was applied to the photographs, and the infarct area was measured. […]

[3] = system: Alzheimer's disease model animals; assay: Morris water maze test in Alzheimer's disease model animals (bilateral ibotenic acid lesions of basal ganglia); format: in vivo, rats
Procedure: Alzheimer's disease model animals were prepared by bilateral ibotenic acid lesions of basal ganglia in rats. Briefly, rats were anesthetized with pentobarbital sodium and placed in a small animal stereotaxic apparatus. Bilateral infusions of 5 μg/0.5 μL of ibotenic acid into the basal ganglia were made at a rate of 0.1 μL/min via a syringe pump and a stainless steel cannula (outer diameter: 0.5 mm). Stereotaxic coordinates were as follows: −0.8 mm posterior from bregma, 2.6 mm lateral (both sides) from midline, and 7.4 mm depth from the bone surface. Animals in sham group received only anesthesia. Animals were then housed with free access to food and water for the rest of the study.
Compound A was orally administered for 14 days after surgery to the model animals. Control group received the same amount of the vehicle.
Morris water maze test was performed to evaluate the effect of test compound. The water maze was a circular pool (painted gray, 1.48 m in diameter, 0.33 m high). The pool contained water that was maintained at a temperature of 17-18° C. During testing in the water maze, a platform, 12 cm in diameter, was located 2 cm below the water in one of four locations (zone 4) in the pool, approximately 38 cm from the sidewall. A light bulb was placed around the pool as a cue external to the maze. The animals received 2 trials per day from 10 days after the initiation of the administration with Compound A or the vehicle. The rats were trained to locate the hidden escape platform, which remained in a fixed location throughout testing. Trials lasted a maximum of 90 sec. The latency to find the submerged platform was recorded and used as a measure of acquisition of the task. The animals were tested in this way for 4 days (total 8 trials), and then they received a probe trial on the 5th day. […] The time the rat spent searching for the platform in the training quadrant (zone 4): i.e., the previous location of the platform was recorded and used as an index of memory.

[4] = system: Human microvascular endothelial cells (adult) (HMVEC-AD); assay: Recovery of ATP level after nitrogen atmosphere (luciferin-luciferase assay); format: cell-based; details: 5 nM, after 30 minutes nitrogen atmosphere, compared to cells treated with 0.01% DMSO alone; FIG. 2
Procedure: FIG. 2 is a graph showing the effect of Compound A on Recovery of ATP Level. Human microvascular endothelial cells (adult) (HMVEC-AD) were grown to confluence. The cells were then treated for 30 minutes with a nitrogen atmosphere and returned to normal oxygen. ATP levels were monitored at the indicated time points using a luciferin-luciferase assay system (ATPlite, Perkin Elmer). ATP levels are given as relative luminescence. N=6 cells at each time point.
Human microvascular endothelial cells (adult) (HMVEC-AD) were grown to confluence. The cells were then treated for 30 minutes with a nitrogen atmosphere and returned to normal oxygen. ATP levels were monitored at the indicated time points using a luciferin-luciferase assay system (ATPlite, Perkin Elmer).

ddY mice [5] = assay: Persistent time of gasping movements after decapitation in mice, subcutaneous (Example 1); format: in vivo; details: for Persistent Time of Gasping Movements: decapitated 30 minutes after administration, Mean ± SE, n=10
Procedure: as §1, with “study.” for “study. The animals were fasted for 20 hours or longer with free access to water before use.”
11-deoxy-13,14-dihydro-15-keto-16,16-difluoro-PGE1 (hereinafter, “Compound A”) was dissolved in a vehicle (physiologic saline containing 0.01% polysorbate 80 and 0.5% ethanol), and was administered subcutaneously to the animals. The control group received an equal amount of the vehicle in the same manner.
as §2

[6] = system: Human vascular endothelial cell cultures; assay: Recovery of transendothelial electrical resistance (TEER) after oxygen deprivation; format: cell-based; details: 5 nM with 0.1% DMSO, after 30 minutes oxygen deprivation in nitrogen atmosphere; FIG. 1
Procedure: FIG. 1 is a graph showing the effect of Compound A on Recovery of Transendothelial Electrical Resistance (TEER). Human vascular endothelial cell cultures were brought to confluence, as measured by transendothelial electrical resistance (TEER). The cell cultures were then deprived of oxygen for 30 minutes by incubation in a nitrogen atmosphere. The cells were then either treated with 0.1% DMSO or with 5 nM Compound A with 0.1% DMSO. Statistical significance is indicated at all data points after drug treatment. N=10 cells.
Human vascular endothelial cell cultures were brought to confluence, as measured by transendothelial electrical resistance (TEER). The cell cultures were then deprived of oxygen for 30 minutes by incubation in a nitrogen atmosphere. The cells were then either treated with 0.1% DMSO or with 5 nM Compound A with 0.1% DMSO final.

Row | Structure (SMILES) | Persistent Time of Gasping Movements (ddY mice [1]; 100 μg/kg p.o.) [s] | Persistent Time of Gasping Movements (ddY mice [1]; 300 μg/kg p.o.) [s] | Persistent Time of Gasping Movements (ddY mice [1]; 1000 μg/kg p.o.) [s] | Effect on persistent time of gasping movement after decapitation (in words) (ddY mice [1]) | Effect on persistent time of gasping movement after decapitation (in words) (ddY mice [2]) | Persistent Time of Gasping Movements (ddY mice [2]; decapitated 30 minutes after administration, Mean ± SE, n=10, p<0.01 vs vehicle) [s] | Infarct volume (Crj: CD (SD) male rats; 0.05 mg/kg i.v. immediately after and 30 minutes after MCA occlusion-reperfusion, P<0.05) | Infarct volume (Crj: CD (SD) male rats; 0.5 mg/kg i.v. immediately after and 30 minutes after MCA occlusion-reperfusion, P<0.01) | Effect on cerebral infarct volume after ischemia (in words) (Crj: CD (SD) male rats; 0.05 and 0.5 mg/kg i.v., compared with vehicle group) | Goal latency (8th trial) ([3]; 1 mg/kg orally for 14 days after surgery, mean ± SE, n=10, p<0.01 vs vehicle) [s] | Time spent in zone 4 ([3]; 1 mg/kg orally for 14 days after surgery, probe trial 90 sec, mean ± SE, n=10, p<0.05 vs vehicle) [s] | Effect on deficit in learning and memory (in words) ([3]; orally for 14 days after surgery, Morris water maze) | Recovery of ATP level (in words) [4] | Persistent Time of Gasping Movements (ddY mice [5]; 10 μg/kg s.c.) [s] | Persistent Time of Gasping Movements (ddY mice [5]; 30 μg/kg s.c.) [s] | Persistent Time of Gasping Movements (ddY mice [5]; 100 μg/kg s.c., p<0.05 vs vehicle) [s] | Persistent Time of Gasping Movements (ddY mice [5]; 300 μg/kg s.c., p<0.01 vs vehicle) [s] | Effect on persistent time of gasping movement after decapitation (in words) (ddY mice [5]; 10, 30, 100 and 300 μg/kg s.c.) | Recovery of TEER (in words) [6]
1 | CCCCC(F)(F)C(=O)CCC1CCC(=O)C1CCCCCCC(=O)OC (centres unmarked) [Compound B, 11-deoxy-13,14-dihydro-15-keto-16,16-difluoro-PGE1 methyl ester] | 17.6 ± 0.5 | 19.1 ± 0.5 | 19.1 ± 0.4 | dose-dependent prolongation | – | – | – | – | – | – | – | – | – | – | – | – | – | – | –
2 | CCCCC(F)(F)C(O)CCC1CCC(=O)C1CCCCCCC(=O)O (centres unmarked) [Compound C, 11-deoxy-13,14-dihydro-16,16-difluoro-PGE1] | – | – | – | – | significant prolongation | 25.2 ± 0.7 | – | – | – | – | – | – | – | – | – | – | – | – | –
3 | CCCCC(F)(F)C(=O)CCC1CCC(=O)C1CCCCCCC(=O)O (centres unmarked) [Compound A, 11-deoxy-13,14-dihydro-15-keto-16,16-difluoro-PGE1] | 18.8 ± 0.5 | 18.9 ± 0.3 | 20.2 ± 0.6 | dose-dependent prolongation | – | – | 208.2 ± 22.2* mm^3 | 172.9 ± 25.5** mm^3 | significantly reduced the cerebral infarct volume | 51.5 ± 13.7 | 20.8 ± 3.6 | significant reversals of the deficit in learning and memory | ATP levels returned more quickly | 21.7 ± 0.6 | 22.0 ± 0.4 | 23.2 ± 0.8 | 23.6 ± 0.6 | dose-dependent prolongation | immediate recovery of TEER
